# Test results taken from US9868977B2, “Red-shifted luciferins and methods of using same” (PROMEGA CORPORATION, priority 2013, dated 2018).
# Tests used:
# Type in all cases: biochemical
# esterase = assay: Effect of esterase on bioluminescence of ester pro-substrate; details: serial dilutions; luciferin detection reagent with esterase, with or without UltraGlo luciferase
# Protocol: Reconstitution buffer with esterase (10 ml; Promega Cat. No. V144A) and luciferin detection reagent (Promega; V859A) were mixed and incubated at room temperature for 30 minutes (“Luciferin Detection Reagent”). UltraGlo® luciferase (210 ul of 5.7 mg/ml; Promega) was then added to 3 mls of the luciferin detection reagent.
# Serial dilutions of PBI-5045 (isonaphtholuciferin methyl ester) were made in a solution of 100 mM HEPES/10 mM MgSO4. 50 ul of each serially diluted PBI-5045 was then added to a well of a white, 96-well assay plate (n=6). Then, either 50 ul luciferin detection reagent or luciferin detection reagent with UltraGlo® luciferase was added to the wells. Luminescence was detected on a GloMax® Multi+ luminometer (Promega).
# FIGS. 4A and 4B show the effects of esterase on PBI-5045.
# Leu-aminopeptidase = assay: Titration of Leu-aminopeptidase with pro-substrate and luciferin detection reagent; details: pro-substrate 20, 2 or 0.2 uM; Leu-aminopeptidase serially diluted; luminescence every 5 min for 90 min
# Protocol: To a lyophilized vial of luciferin detection reagent (Promega; V859A), 10 ml of a solution of 100 mM HEPES pH 7.5/10 mM MgSO4 was added and allowed to equilibrate for 30 minutes at room temperature.
# A 20 uM solution of Leu-luciferin and a 20 uM solution of PBI-5044 were prepared in a solution of 100 mM HEPES/0.1% Prionex. The 20 uM solution of PBI-5044 was then serially diluted in the HEPES/Prionex solution to 2 uM and 0.2 uM solutions.
# 1 U/ml Leu-aminopeptidase (Sigma) was serially diluted (FIG. 1) into each of the luciferin dilutions (20 uM Leu-luciferin, 20 uM PBI-5044, 2 uM PBI-5044 or 0.2 uM PBI-5044). For example, 50 ul 1 U/ml Leu-aminopeptidase was added to 450 ul luciferin dilution (final concentration of Leu-aminopeptidase was 0.1 U/ml). Leu-aminopeptidase was then serially diluted by adding 150 ul Leu-aminopeptidase solution to 350 ul of each prepared luciferin derivative.
# In triplicate, 50 ul of each serially diluted Leu-aminopeptidase/luciferin sample was added to a well of a white, 96-well assay plate (Costar 3355), and 50 ul of the equilibrated luciferin detection reagent added to each sample. Luminescence was detected every 5 minutes for 90 minutes on a GloMax® Multi luminometer (Promega) at room temperature.
# Aminopeptidase = assay: Multiplexing of Leu-luciferin and PBI-5044 with filtered luminescence; details: 20 uM Leu-Luciferin/20 uM PBI-5044; 630 long pass and 525 short pass filters
# Protocol: To a lyophilized vial of luciferin detection reagent (Promega; V859A), 10 ml of a solution of 100 mM HEPES pH 7.5/10 mM MgSO4 was added (LDR) and allowed to equilibrate for 30 minutes at room temperature.
# Aminopeptidase was diluted to 0.01 u/ml into a solution containing 100 mM HEPES pH 7.5 and 0.1% Prionex. The following solutions were then prepared in the aminopeptidase dilution: • 1. 20 uM Leu-Luciferin, • 2. 20 uM PBI-5044, • 3. 20 uM Leu-Luciferin/20 uM PBI-5044
# In triplicate, 50 ul of each of the above mixtures (1-3) was added to 50 ul of LDR and incubate for 15 minutes. Luminescence was measured on a GloMax® 96 luminometer equipped with a 630 long pass filter (Edmond Optics 253253) and a 525 short pass filter (Edmond Optics 84694).
Compound,luminescence in presence of esterase (reporting esterase activity) (esterase),bioluminescent response as a function of added aminopeptidase (reporting protease activity) (Leu-aminopeptidase),separation of bioluminescence from luciferin by filters (multiplexing) (Aminopeptidase)
"COC(=O)C1CSC(c2nc3ccc4cc(O)ccc4c3s2)=N1 (stereo not drawn) [PBI-5045, 2-(7-Hydroxynaphtho[2,1-d]thiazol-2-yl)-4,5-dihydrothiazole-4-carboxylic acid methyl ester]",successful use in reporting esterase activity,,
"CC(C)C[C@H](N)C(=O)Nc1ccc2c(ccc3nc(C4=NC(C(=O)O)CS4)sc32)c1 (stereo partly drawn) [PBI-5044, 2-(7-(Leucinyl)aminonaphtho[2,1-d]thiazol-2-yl)-4,5-dihydrothiazole-4-carboxylic acid]",,successful use in reporting protease activity,luminescence from each detected with little interference from the other
